≈ marks a conversion by molar mass, not a printed value. Where two headings read alike, the source gives them in different places.
Legend:
[1] = tested on: C. parvum; test: C. parvum infection of MDBKF5D2 cell monolayers, immunofluorescence assay at 48 hours; assay type: cell-based, Cryptosporidium parvum
Protocol: C. parvum oocysts at 50,000/well were incubated at 37° C. (8% CO2) on confluent MDBKF5D2 cell monolayers in 96 well microtiter plates with the following concentrations of each drug. […] The level of infection of each well was determined and analyzed by an immunofluorescence assay at 48 hours using an antibody to C. parvum sporozoites made in rabbits at a concentration of 0.1%. Fluorescein-conjugated goat anti-rabbit antibody was used at a concentration of 1%.
C. parvum oocysts at 50,000/well were incubated with each drug (PRM=paromomycin which is the positive control, NPMG, gabaculine, SHAM, 8-hydroxyquinoline) at 37° C. (8% carbon dioxide) on confluent MDBKF5D2 cell monolayers in 96 well microtiter plates. The level of infection of each well was determined and analyzed by an immunofluorescence assay at 48 hours using as an antibody C. parvum sporozoite rabbit anti-serum (0.1%), and using fluorescein-conjugated goat anti-rabbit antibody (1%). Data are expressed as mean parasite count/field when 16 fields counted at 10× magnification “s.d. of the mean” (FIG. 6).

[2] = tested on: W2 clone of Plasmodium falciparum; test: P. falciparum in vitro growth assay (Milhous et al.), W2 clone; assay type: cell-based; conditions: for IC50 / IC90: Plasmodium falciparum
[3] = tested on: T. gondii tachyzoites (RH strain); test: T. gondii growth inhibition in HFF monolayers, tritiated uracil uptake; assay type: cell-based, Toxoplasma gondii
Protocol: The improvements are based on microscopic visual imspection of infected and inhibitor treated cultures, and on quantitation of nucleic acid synthesis of the parasite by measure intake of ^3H uracil onto the parasite's nucleic acid. Uracil is not utilized by mammalian cells. […] Only the RH strain tachyzoites, cultured for up to 72 hours, had been used in previously reported assays. The use of Me49, Ptg, and R5 mutant are unique aspects of the methods used in these assays in this invention.
In these assays toxicity of a candidate inhibitor was assessed by its ability to prevent growth of human foreskin fibroblasts (HFF) after 4 days and after 8 days as measured by tritiated thymidine uptake and microscopic evaluation. Confluent monolayers of HFF were infected with tachyzoites and bradyzoites. Inhibitor was added one hour later. Non-toxic doses were used in parasite growth inhibition assays. Parasite growth was measured by ability to incorporate tritiated uracil during the last 18 hours of culture.
First the toxicity of gabaculine was assessed by its ability to prevent growth of human foreskin fibroblasts (HFF) as measured by ^3H-thymidine uptake and microscopic evaluation. Non-toxic doses were used in parasite growth inhibition assays. in vitro parasite growth inhibition assays included confluent monolayers of HFF infected with tachyzoites (RH) or mutant Me49 (R5). Gabaculine was added 1 hour later. Parasite growth was measured by the ability to incorporate 3H-uracil during the last 18 hours of culture. In addition, parasite growth was evaluated microscopically in Giemsa stained slides.
Confluent monolayers of HFF cells, grown in 96-well plates are infected with T. gondii tachyzoites of the RH strain and serial dilutions of anti-microbial compound are applied 1 hour later. T. gondii growth is assessed in these cultures by their ability to incorporate tritiated uracil (2.5 μCi/well) added during the last 18 hours of culture. After harvesting cells with an automatic cell harvester, uracil incorporation is measured by liquid scintillation.

[4] = tested on: D6 clone of Plasmodium falciparum; test: P. falciparum in vitro growth assay (Milhous et al.), D6 clone; assay type: cell-based; conditions: for IC50 / IC90: Plasmodium falciparum
[5] = tested on: fibroblasts; test: TSA-DCA experiments: effect on host cells (tritiated thymidine uptake, non-confluent fibroblasts); assay type: cell-based, human
Protocol: (§1) Effects of inhibitors of T. gondii in vitro were assessed after 1, 4 or 5 days in tissue culture using fibroblasts infected with […] tachyzoites of T. gondii. Effects in the fibroblasts were scored. Compounds used were TSA-DCA, TSA-Na+, and DCA at various concentrations ranging up to 1 mM. Uptake of ^3H uracil (utilized by T. gondii but not by mammalian cells), and visual appearance of T. gondii in these cells were used to assess parasite growth. Effect of compounds on host cells was studied by microscopic examination and by measuring uptake of tritiated thymidine utilizing a non-confluent monolayer of fibroblasts.
(§2) The results in table 5 show the greatest inhibitory effect of TSA-DCA and some effect of DCA at a higher concentration. […] “T50” is the concentration at which 50% of the cells were killed (T=toxic) and so forth. […] Analysis was uptake of H3 thymidine. Confirmation was by visual inspection of microscope slides (e.g. FIGS. 15 A-D).

[6] = tested on: T. gondii tachyzoites; test: TSA-DCA experiments: T. gondii growth in fibroblasts (3H uracil uptake, visual appearance); assay type: cell-based, Toxoplasma gondii
Protocol: as §1, §2

[7] = tested on: T. gondii; test: T. gondii infection in mice: manifestations, parasitemia, brain cysts; set-up: species or system Toxoplasma gondii
From the text: Cyst numbers present in a suspension of brain are enumerated, or cyst numbers in formalin fixed paraffin embedded sections are quantitated.
In this competitive PCR method the T. gondii B1 gene is amplified by PCR in the presence of a construct which produces a product slightly smaller than the wild type B1 gene. The amount of construct can be quantitated to semiquantitate the amount of the competing wild type gene.
A method to measure the amount of parasitemia in mouse peripheral blood has been developed. Briefly, the target for PCR amplification is the 35 fold repetitive B1 gene of T. gondii and the amplification was performed using primers previously reported. […] Competitive PCR was performed by spiking individual reactions (containing equal amounts of genomic DNA) with a dilution of the internal standard. Since this internal control contains the same primer template sequences, it competes with the B1 gene of T. gondii for primer binding and amplification. The sensitivity of the PCR reaction in each sample can be monitored. Following competitive PCR, the PCR products are distinguished by size and the amount of products generated by the target and internal standard can be compared on a gel. The amount of competitor DNA yielding equal amounts of products gives the initial amount of target gene.

[8] = W2 clone (first value of each pair)
[9] = D6 clone (second value of each pair)
[10] = exp. 5/15, day 4, range 12-100 (200) uM, no visual
[11] = exp. 5/29, day 4, range 125-1000 (2000) uM, no visual
[12] = exp. 8/23, day 1, range 250-2000 uM
[13] = W2 clone (first value of each pair), read-out: Concentrations of other compounds that inhibited these clones in this assay
[14] = D6 clone (second value of each pair), read-out: Concentrations of other compounds that inhibited these clones in this assay

## O=C(O)CC[N+](=O)[O-] [3-NPA, 3-Nitropropionic acid]
[1]
  inhibition of C. parvum: inhibited
[2]; W2
  IC50: 3.3 µg/mL (≈ 27.7 µM)
  IC90: 4.61 µg/mL (≈ 38.7 µM)
[3]; 3-NPA 0.006 mg ml, 4-day assay, medium about 30,000 CPM
  restriction of CPM (tritiated uracil incorporation): around 60%
[4]; D6
  IC50: 2820 ng/mL (≈ 23.7 µM)
  IC90: 2.82 µg/mL (≈ 23.7 µM)

## Oc1cccc2cccnc12 [8-OH-quinoline, 8-hydroxyquinoline]
[1]; 8-OH-quinoline 0.1 μg/ml, media alone ~1800
  approximate 95% Cl count (mean parasite count per field): ~1300 count/field
[1]; 8-OH-quinoline 1 μg/ml, media alone ~1800
  approximate 95% Cl count (mean parasite count per field): ~1100 count/field
[1]; 8-OH-quinoline 10 μg/ml, media alone ~1800
  approximate 95% Cl count (mean parasite count per field): ~900 count/field
[1]; 8-OH-quinoline 100 μg/ml, media alone ~1800
  approximate 95% Cl count (mean parasite count per field): ~300 count/field
[2]; W2
  IC50: 1.63 µg/mL (≈ 11.2 µM)
  IC90: 4.52 µg/mL (≈ 31.1 µM)
[3]
  effect against T. gondii: effective against T. gondii
[4]; D6
  IC50: 1200 ng/mL (≈ 8.29 µM)
  IC90: 1.88 µg/mL (≈ 13 µM)

## O=C1C(O)=C([C@H]2CC[C@H](c3ccc(Cl)cc3)CC2)C(=O)c2ccccc21 [Atovaquovone]
[2]; [8]
  Concentrations of other compounds that inhibited these clones in this assay: 0.13 ng/mL
[4]; [9]
  Concentrations of other compounds that inhibited these clones in this assay: 0.12 ng/mL

## CCN(CC)CCCC(C)Nc1ccnc2cc(Cl)ccc12 (stereo not drawn) [Chloroquin]
[2]; [8]
  Concentrations of other compounds that inhibited these clones in this assay: 40.86 ng/mL
[4]; [9]
  Concentrations of other compounds that inhibited these clones in this assay: 2.88 ng/mL

## C1CCC(NC2CCCCC2)CC1 [DCA, dicyclohexylamine]
[5]; [10]
  T50: 50 µM
  T90: none
[5]; [11]
  T50: none
  T90: 2000 µM
[5]; [12]
  T50: 1000 µM
  T90: none
[6]; Toxoplasma gondii, Fibroblast, 24 h
  IC50: 500 µM
[6]; day 1 of culture
  IC75: 1000 µM
[6]; [10]
  IC7 5-80: none
  IC50: none
[6]; [11]
  IC7 5-80: none
  IC50: none
[6]; [12]
  IC7 5-80: 250 to 500 µM
[6]; exp. 9/8, day 1, range 125-1000 uM
  IC7 5-80: 1000 µM

## CCCCN(CCCC)CCC(O)c1cc2c(Cl)cc(Cl)cc2c2cc(C(F)(F)F)ccc12 (stereo not drawn) [HAL]
[2]; [8]
  Concentrations of other compounds that inhibited these clones in this assay: 0.33 ng/mL
[4]; [9]
  Concentrations of other compounds that inhibited these clones in this assay: 0.51 ng/mL

## NC[C@@H]1O[C@H](O[C@H]2[C@@H](O)[C@H](O[C@@H]3[C@@H](O)[C@H](N)C[C@H](N)[C@H]3O[C@H]3O[C@H](CO)[C@@H](O)[C@H](O)[C@H]3N)O[C@@H]2CO)[C@H](N)[C@@H](O)[C@@H]1O [PRM]
[1]; paromomycin with ethanol (positive control), media and ethanol ~1200
  approximate 95% Cl count (mean parasite count per field): ~100 count/field
[1]; paromomycin without ethanol (positive control), media alone ~1800
  approximate 95% Cl count (mean parasite count per field): ~200 count/field

## CCc1nc(N)nc(N)c1-c1ccc(Cl)cc1 [Pyrimethamine]
[2]; [13]
  IC50: 0.0821 µg/mL (≈ 0.33 µM)
[4]; [14]
  IC50: 0.05 ng/mL (≈ 0.000201 µM)

## C=C[C@H]1C[N@@]2CC[C@H]1C[C@H]2[C@H](O)c1ccnc2ccc(OC)cc12 [Quinine]
[2]; [13]
  IC50: 0.0386 µg/mL (≈ 0.119 µM)
[4]; [14]
  IC50: 4.41 ng/mL (≈ 0.0136 µM)

## O=C(NO)c1ccccc1O [SHAM, Salicylhydroxamic acid]
[1]; SHAM 0.1 μg/ml, 0.2% ETOH, media and ethanol ~1200
  approximate 95% Cl count (mean parasite count per field): ~1200 count/field
[1]; SHAM 1 μg/ml, 0.2% ETOH, media and ethanol ~1200
  approximate 95% Cl count (mean parasite count per field): ~1100 count/field
[1]; SHAM 10 μg/ml, 0.2% ETOH, media and ethanol ~1200
  approximate 95% Cl count (mean parasite count per field): ~1100 count/field
[1]; SHAM 100 μg/ml, 0.2% ETOH, media and ethanol ~1200
  approximate 95% Cl count (mean parasite count per field): ~400 count/field
[3]
  effect against T. gondii: effective against T. gondii
[3]; SHAM 0.16 μg/ml, 4 day assay, medium around 54,000 CPM
  restriction of CPM (tritiated uracil incorporation): around 50%
[3]; SHAM 0.78 μg/ml, 4 days, medium around 54,000, no RH around 1,000 CPM
  counts (tritiated uracil incorporation): about 8,000 CPM
[7]
  parasitemia and number of brain cysts in vivo: affects parasitemia and number of brain cysts

## Nc1ccc(S(=O)(=O)Nc2ncccn2)cc1 [Sulfadiazine]
[3]; sulphadiazine 1.56 μmg/ml, 4 days, medium about 36,000 CPM
  reduction of growth of T. gondii: about 60%
[7]
  manifestations of infection in vivo: reduced manifestations of infection

Reference: patent publication US20030186352A1, “Apicomplexan chorismate synthase sequences and an inhibitor of the shikimate pathway” (priority 1998, published 2003)
